Experimental data as given in patent US8158593B2, “GPR17 modulators, method of screening and uses thereof” (Universita' degli Studi di Milano, priority 2004, dated 2012).
Like-named read-outs stand apart in the source and are kept apart here.

Key:
hGPR17 [1] = molecular target: T1, hGPR17 (Homo sapiens, UniProt Q13304); experiment: [35S]GTPγS binding to membranes of 1321N1 cells expressing human GPR17; format: biochemical; set-up: expressed in transfected cells; host or cells: 1321N1 (A1, A5), COS-7 (A3, A6), HEK-293 (A4); pcDNA3.1; settings: for EC50: agonist, 1321N1 cells expressing human GPR17; for effect on [35S]GTPγS binding (agonist response): tested at 10 and 50 μM, 1321N1 cells expressing hGPR17
Procedure: (§1) [^35S]GTPγS Binding Assay. 1321N1 cells, COS-7 and HEK-293 cells (control and transfected cells) were homogenized in 5 mM TRIS-HCl, 2 mM EDTA, pH 7.4 and centrifuged at 48000 g for 15 min at 4° C. The resulting pellets (plasma membranes) were washed in 50 mM TRIS-HCl, 10 mM MgCl2, pH 7.4 and stored at −80° C. until used. Measurement of nucleotide-stimulated [^35S]GTPγS binding to membranes of cells expressing the human or rat GPR17 receptor was performed as previously described^9-11.
(§2) To identify the endogenous ligand of GPR17, the cDNAs from human and rat GPR17 were cloned into the mammalian expression vector pcDNA3.1 and transfected in 1321N1, COS-7 and HEK-293 cells for functional characterization. GPR17 activation was assessed by testing the ability of exogenously-added ligands to increase [^35S]GTPγS binding to purified membranes obtained from transfected cells^9-11. […] The specificity of GPR17 responses were also challenged by assessing the ability of some purinergic and leukotriene receptor antagonists to counteract the increase of [^35S]GTPγS binding evoked by nucleotides and cys-LTs in 1321N1 cells expressing either the human or rat receptor. […] Because both P2Y^2,11,12 and CysLT receptors^3,13 may couple to G proteins of the Gi subfamily, to evaluate the involvement of this class of G-proteins, we preincubated 1321N1 cells expressing hGPR17 with pertussis toxin (PTX) which inactivates Gi proteins, prior to membrane preparation and [^35S]GTPγS binding.
(§3) Table 1. Potency of various ligands on [^35S]GTPγS binding to membranes obtaind from 1321N1 cells-transfected with human or rat GPR17. […] All data represent the mean of triplicate determinations from 4-9 independent experiments.

rat GPR17 = molecular target: T2, rat GPR17 (Rattus norvegicus, UniProt Q09QM4); experiment: [35S]GTPγS binding to membranes of 1321N1 cells expressing rat GPR17; format: biochemical; settings: for EC50: agonist, 1321N1 cells expressing rat GPR17; for IC50: rat GPR17
T2 construct: expressed in transfected cells; host or cells: 1321N1; pcDNA3.1
Procedure: as §1, §2, §3

hGPR17 [2] = molecular target: T1, hGPR17; experiment: [35S]GTPγS binding, COS-7 cells expressing hGPR17; format: biochemical; set-up: expressed in transfected cells; host or cells: COS-7 (A3, A6); pcDNA3.1; settings: COS-7 cells transfected with hGPR17
Procedure: as §1
To identify the endogenous ligand of GPR17, the cDNAs from human and rat GPR17 were cloned into the mammalian expression vector pcDNA3.1 and transfected in 1321N1, COS-7 and HEK-293 cells for functional characterization. GPR17 activation was assessed by testing the ability of exogenously-added ligands to increase [^35S]GTPγS binding to purified membranes obtained from transfected cells^9-11. […] The specificity of GPR17 responses were also challenged by assessing the ability of some purinergic and leukotriene receptor antagonists to counteract the increase of [^35S]GTPγS binding evoked by nucleotides and cys-LTs in 1321N1 cells expressing either the human or rat receptor. […]

hGPR17 [3] = molecular target: T1, hGPR17; experiment: Single cell calcium imaging in COS-7 cells expressing hGPR17; format: cell-based; set-up: expressed in transfected cells; host or cells: COS-7 (A3, A6); pcDNA3.1
Text: (e-h) The same agonists induced no responses in cells transfected with the empty plasmid. […] Polychrome IV (TILL Photonics, Germany) was used as light source. Fura-2 and EGFP fluorescence images were collected with a PCO Super […] (Axon Instruments, Forest City, Calif.) and analyzed with the Axon Imaging Workbench 2.2 software (Axon Instruments).

hGPR17 [4] = molecular target: T1, hGPR17; experiment: Single cell calcium imaging in 1321N1 cells expressing hGPR17; format: cell-based; set-up: expressed in transfected cells; host or cells: 1321N1 (A1, A5), COS-7 (A3, A6), HEK-293 (A4); pcDNA3.1
Text: Polychrome IV (TILL Photonics, Germany) was used as light source. Fura-2 and EGFP fluorescence images were collected with a PCO Super […] (Axon Instruments, Forest City, Calif.) and analyzed with the Axon Imaging Workbench 2.2 software (Axon Instruments).

[5] = system: ischemic brain damage (MCAo); experiment: Permanent middle cerebral artery occlusion (MCAo), brain infarct size by MRI; format: in vivo, rat; settings: 400 ng/animal i.c.v. 48 and 24 h before and 10 min after MCAo
Procedure: Quantitative analysis of infarct size volume at 24 and 48 h after MCAo from rats receiving vehicle (C1, n=5) or Mtk (2 mg/kg intravenously, i.v., 10 min after MCAO; n=6); vehicle (C2, n=5) or AR-C (4.5 μg/animal intracerebroventricularly, i.c.v., 10 min after MCAo, n=5), vehicle (C3, n=5) or either oligo616 or scrambled-oligo (400 ng/animal, i.c.v., 48, 24 before and 10 min after MCAo, n=5). Data are expressed as percentage variation of infarct volume at 24 and 48 hours after MCAo compared to 2 h considered as 100% (§ p<0.05, # p<0.01 vs volume at 2 hr; *p <0.05, **p<0.01 vs corresponding control evaluated at the same time point). Induction of focal brain ischemia in the rat. Male Sprague-Dawley rats (Charles River) underwent permanent middle cerebral artery occlusion (MCAo) as previously described^28,29. […] AR-C was utilized here to simply test the involvement of GPR17 in brain ischemia, and, being a very polar molecule which is likely to very poorly permeate the blood brain barrier, it was administered i.c.v. Oligo-616 and oligo-scramble (400 ng in 5 μl of physiological solution) were administered i.c.v three times to each rat 48, 24 h before and 10 minutes after MCAo. Control groups received corresponding vehicle i.c.v. Magnetic Resonance Imaging analysis. […]

T2 sequence (Q09QM4 whole entry): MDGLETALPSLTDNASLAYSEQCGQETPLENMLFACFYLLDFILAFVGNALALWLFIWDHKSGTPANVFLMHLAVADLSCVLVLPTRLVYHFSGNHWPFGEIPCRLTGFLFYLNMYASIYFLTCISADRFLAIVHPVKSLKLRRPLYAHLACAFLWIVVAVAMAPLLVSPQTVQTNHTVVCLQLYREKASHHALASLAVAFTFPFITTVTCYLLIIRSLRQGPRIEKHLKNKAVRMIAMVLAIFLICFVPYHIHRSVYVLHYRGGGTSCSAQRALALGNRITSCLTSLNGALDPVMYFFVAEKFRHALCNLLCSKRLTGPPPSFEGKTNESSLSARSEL
T1 sequence (Q13304 29-367): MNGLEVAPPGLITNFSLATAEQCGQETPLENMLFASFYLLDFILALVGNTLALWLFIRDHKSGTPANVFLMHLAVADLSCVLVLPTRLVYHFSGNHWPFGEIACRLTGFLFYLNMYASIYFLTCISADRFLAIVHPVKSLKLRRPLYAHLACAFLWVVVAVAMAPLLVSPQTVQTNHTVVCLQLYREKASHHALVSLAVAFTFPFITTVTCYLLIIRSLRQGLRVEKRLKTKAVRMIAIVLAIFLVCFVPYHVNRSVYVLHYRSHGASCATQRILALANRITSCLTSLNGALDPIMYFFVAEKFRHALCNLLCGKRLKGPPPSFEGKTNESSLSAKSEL

## CCCCC/C=C\C\C=C/C=C/C=C/[C@@H](SC[C@H](NC(=O)CC[C@H](N)C(=O)O)C(=O)NCC(=O)O)[C@@H](O)CCCC(=O)O [LTC, LTC4]
hGPR17 [1]
  EC50: 0.33 ± 0.011 nM
Rat GPR17
  EC50: 65 ± 4.2 nM
hGPR17 [2]
  response in [35S]GTPγS binding: induced responses

## Nc1ncnc2c1ncn2[C@@H]1O[C@H](COP(=O)(O)CP(=O)(O)OP(=O)(O)O)[C@@H](O)[C@H]1O [α,βmethylenATP]
hGPR17 [1]
  effect on [35S]GTPγS binding (agonist response): No other nucleotides or nucleosides (i.e., ATP, ADP, 2-methyl-thio-ADP, UTP, α,βmethylenATP and guanosine, all tested at 10 and 50 μM concentrations) had any effect

## Nc1ncnc2c1ncn2[C@@H]1O[C@H](COP(=O)(O)OP(=O)(O)OP(=O)(O)O)[C@@H](O)[C@H]1O [ATP]
hGPR17 [1]
  effect on [35S]GTPγS binding (agonist response): No other nucleotides or nucleosides (i.e., ATP, ADP, 2-methyl-thio-ADP, UTP, α,βmethylenATP and guanosine, all tested at 10 and 50 μM concentrations) had any effect

## N6-methyl-adenosin-3′,5′-bis-phosphate [MRS 2179]
hGPR17 [1]; antagonist of binding stimulated by 50 μM UDP-glucose, human GPR17
  IC50: 508 ± 29 nM

## CC(C)(O)c1ccccc1CC[C@@H](SCC1(CC(=O)O)CC1)c1cccc(/C=C/c2ccc3ccc(Cl)cc3n2)c1 [Montelukast]
hGPR17 [1]
  IC50: 60 ± 4.3 nM

## Nc1nc2c(ncn2[C@@H]2O[C@H](CO)[C@@H](O)[C@H]2O)c(=O)[nH]1 [guanosine]
hGPR17 [1]
  effect on [35S]GTPγS binding (agonist response): No other nucleotides or nucleosides (i.e., ATP, ADP, 2-methyl-thio-ADP, UTP, α,βmethylenATP and guanosine, all tested at 10 and 50 μM concentrations) had any effect

## CSCCNc1nc(SCCC(F)(F)F)nc2c1ncn2C1OC(COP(=O)(O)OP(=O)(O)C(Cl)(Cl)P(=O)(O)O)C(O)C1O (stereo not drawn) [AR-C69931MX, N6-methylthio-ethyl-2-trifluoromethyl-ethylthio-adenosin-5′beta-methylene, γ-dichloromethylene trisphosphate]
Rat GPR17; antagonist of binding stimulated by 50 μM UDP-glucose
  IC50: 0.022 ± 0.0015 nM

## PTX
hGPR17 [1]; cells exposed to 100 ng/ml PTX for 18 h before membrane preparation, stimulated by UDP, UDP-galactose, UDP-glucose or LTD4
  inhibition of agonist-stimulated [35S]GTPγS binding: strongly inhibited

## O=C(Nc1cccc2c(=O)cc(-c3nnn[nH]3)oc12)c1ccc(OCCCCc2ccccc2)cc1 [Pranlukast]
hGPR17 [1]; antagonist of activation induced by 100 nM LTD4, human GPR17
  IC50: 10.5 ± 1.2 nM
Rat GPR17; antagonist of activation induced by 100 nM LTD4
  IC50: 31 ± 2.4 nM

## CSc1nc(N)c2ncn([C@@H]3O[C@H](COP(=O)(O)OP(=O)(O)O)[C@@H](O)[C@H]3O)c2n1 [2-methyl-thio-ADP]
hGPR17 [1]
  effect on [35S]GTPγS binding (agonist response): No other nucleotides or nucleosides (i.e., ATP, ADP, 2-methyl-thio-ADP, UTP, α,βmethylenATP and guanosine, all tested at 10 and 50 μM concentrations) had any effect

## O=c1ccn([C@@H]2O[C@H](COP(=O)(O)OP(=O)(O)OP(=O)(O)O)[C@@H](O)[C@H]2O)c(=O)[nH]1 [UTP]
hGPR17 [1]
  effect on [35S]GTPγS binding (agonist response): No other nucleotides or nucleosides (i.e., ATP, ADP, 2-methyl-thio-ADP, UTP, α,βmethylenATP and guanosine, all tested at 10 and 50 μM concentrations) had any effect

## Nc1ncnc2c1ncn2[C@@H]1O[C@H](COP(=O)(O)OP(=O)(O)O)[C@@H](O)[C@H]1O [ADP]
hGPR17 [1]
  effect on [35S]GTPγS binding (agonist response): No other nucleotides or nucleosides (i.e., ATP, ADP, 2-methyl-thio-ADP, UTP, α,βmethylenATP and guanosine, all tested at 10 and 50 μM concentrations) had any effect

## CCCCC/C=C\C\C=C/C=C/C=C/[C@@H](SC[C@H](N)C(=O)NCC(=O)O)[C@@H](O)CCCC(=O)O [LTD, LTD4]
hGPR17 [1]
  EC50: 7.2 ± 0.3 nM
Rat GPR17
  EC50: 5.9 ± 0.4 nM
hGPR17 [3]
  cells showing [Ca2+]i transient: approximately 50%
hGPR17 [3]; n=22
  mean calcium response ΔF340/380: 0.18±0.03
hGPR17 [2]
  response in [35S]GTPγS binding: induced responses
hGPR17 [4]
  cells showing rise of [Ca2+]i: approximately 30%

## oligo241: antisense oligonucleotide designed on the sequence of rGPR17 mRNA, SEQ ID NO: 2, unmodified (antisense GGGATCACAAGTCAGGCAC; unmodified DNA; listed as Rattus norvegicus)
[5]
  evolution of brain infarct size (MRI): smaller protective effect
